Measured values taken from patent US7135466B2 (Kirin Beer Kabushiki Kaisha, priority 1999, dated 2006).
Read-outs that look alike come from different tables or passages of the source.

What was measured:
PDGF-Ra = target: T1, PDGF-Ra (Homo sapiens, UniProt P16234); assay: Inhibitory activity against PDGF-Ra phosphorylation by PDGF-AA stimulation using G292; format: cell-based; settings: for IC50: > means inhibition at indicated concentration not more than 50%, < and << not less than 50%, read-out: PDGF (E) IC50
T1 construct: host or cells: G-292 human osteosarcoma cells
Method in brief: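 G-292 human osteosarcoma cells, serum-starved overnight in 0.1% FBS, were pretreated with compound in DMSO for 1 hr at 37 °C, then stimulated with 50 ng/ml PDGF-AA for 5 min. Lysates were captured on anti-phosphotyrosine PY-20 plates and probed with anti-PDGF-Ra plus HRP secondary; absorbance read at 450 nm.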

c-kit = target: T2, c-kit (Homo sapiens, UniProt P10721); assay: Inhibitory activity against c-kit autophosphorylation (MO7e cells, h-SCF); format: cell-based; settings: for IC50: h-SCF stimulation; for inhibition at 1 µM: Mo7e, figure in parentheses in −( ), at 1000 nM
T2 construct: MO7e (human megakaryocytic leukemia cell line) which had been arrested for 20 hr; endogenous in cells; host or cells: MO7e human megakaryocytic leukemia cell line
Method in brief: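 Growth-arrested (20 hr) MO7e; cpd in DMSO, 1 hr; h-SCF 50 ng/ml, 5 min; lyse. ELISA: anti-pTyr (PY-20) capture, anti-c-kit 1° Ab, HRP anti-rabbit 2° Ab, A450.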

[1] = MO7e cells, read-out: c-kit IC50

T1 sequence (P16234 24-1089): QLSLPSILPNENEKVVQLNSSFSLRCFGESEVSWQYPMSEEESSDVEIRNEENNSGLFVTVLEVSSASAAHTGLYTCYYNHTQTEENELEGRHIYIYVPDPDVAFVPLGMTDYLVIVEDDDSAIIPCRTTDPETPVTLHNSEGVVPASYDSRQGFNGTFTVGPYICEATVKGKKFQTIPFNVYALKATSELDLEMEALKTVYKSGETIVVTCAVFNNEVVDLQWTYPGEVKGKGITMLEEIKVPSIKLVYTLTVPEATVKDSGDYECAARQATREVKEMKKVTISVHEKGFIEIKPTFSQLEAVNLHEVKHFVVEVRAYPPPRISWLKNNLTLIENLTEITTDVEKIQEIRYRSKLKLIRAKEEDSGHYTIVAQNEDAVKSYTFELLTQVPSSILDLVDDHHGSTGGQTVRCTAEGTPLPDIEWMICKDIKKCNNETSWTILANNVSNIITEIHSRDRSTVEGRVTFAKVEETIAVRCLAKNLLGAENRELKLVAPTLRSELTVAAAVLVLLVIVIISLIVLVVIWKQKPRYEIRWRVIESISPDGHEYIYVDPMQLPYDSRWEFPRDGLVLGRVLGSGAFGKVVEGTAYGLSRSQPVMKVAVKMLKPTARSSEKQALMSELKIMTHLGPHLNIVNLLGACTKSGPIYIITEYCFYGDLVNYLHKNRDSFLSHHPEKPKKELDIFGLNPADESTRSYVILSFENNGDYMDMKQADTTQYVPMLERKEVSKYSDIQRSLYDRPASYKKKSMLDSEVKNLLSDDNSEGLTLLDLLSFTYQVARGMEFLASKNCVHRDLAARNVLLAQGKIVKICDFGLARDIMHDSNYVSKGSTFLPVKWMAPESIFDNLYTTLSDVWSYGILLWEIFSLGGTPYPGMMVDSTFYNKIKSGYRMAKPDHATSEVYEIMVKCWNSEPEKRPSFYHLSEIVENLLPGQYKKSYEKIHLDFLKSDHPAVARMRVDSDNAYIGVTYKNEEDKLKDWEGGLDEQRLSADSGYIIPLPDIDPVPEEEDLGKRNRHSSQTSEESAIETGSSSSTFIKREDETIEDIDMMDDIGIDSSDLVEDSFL
T2 sequence (P10721 26-976): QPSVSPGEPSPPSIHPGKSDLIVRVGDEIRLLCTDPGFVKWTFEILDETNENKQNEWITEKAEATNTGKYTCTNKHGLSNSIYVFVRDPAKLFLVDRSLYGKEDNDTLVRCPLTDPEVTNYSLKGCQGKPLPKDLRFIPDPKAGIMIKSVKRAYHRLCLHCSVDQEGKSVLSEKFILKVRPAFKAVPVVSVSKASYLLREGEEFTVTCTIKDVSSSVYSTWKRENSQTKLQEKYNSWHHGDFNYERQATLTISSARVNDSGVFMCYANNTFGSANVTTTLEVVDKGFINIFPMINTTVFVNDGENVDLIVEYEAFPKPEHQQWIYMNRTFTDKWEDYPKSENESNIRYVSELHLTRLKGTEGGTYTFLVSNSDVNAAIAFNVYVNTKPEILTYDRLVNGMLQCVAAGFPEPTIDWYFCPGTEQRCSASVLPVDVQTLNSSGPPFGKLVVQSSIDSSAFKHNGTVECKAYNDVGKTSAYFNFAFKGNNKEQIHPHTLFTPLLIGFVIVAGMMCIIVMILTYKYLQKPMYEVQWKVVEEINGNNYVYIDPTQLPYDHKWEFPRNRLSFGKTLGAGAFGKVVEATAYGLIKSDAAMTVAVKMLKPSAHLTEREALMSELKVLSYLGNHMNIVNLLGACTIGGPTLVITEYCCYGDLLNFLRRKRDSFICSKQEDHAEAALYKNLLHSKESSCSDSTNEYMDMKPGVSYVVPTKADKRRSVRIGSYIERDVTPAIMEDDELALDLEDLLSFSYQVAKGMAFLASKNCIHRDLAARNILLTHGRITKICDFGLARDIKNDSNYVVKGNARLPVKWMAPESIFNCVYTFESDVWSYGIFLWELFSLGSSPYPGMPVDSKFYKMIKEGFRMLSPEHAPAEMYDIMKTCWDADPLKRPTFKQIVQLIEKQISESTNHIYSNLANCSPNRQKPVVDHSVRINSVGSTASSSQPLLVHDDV

SMILES	IC50 (PDGF-Ra) [nM]	IC50 (c-kit; [1]) [nM]	inhibition at 1 µM (c-kit) [%]	inhibition at 0.1 µM (PDGF-Ra; G292, figure in parentheses in >100( ), at 100 nM, read-out: PDGF (E) inhibition (%) at 100 nM) [%]	IC50 (c-kit; c-kit IC50, MO7e cells) [nM]
COc1cc2nccc(Oc3ccc(NC(=S)NC(=O)c4cc(C)ccc4C)cc3)c2cc1OC [Example 1004, N-{4-[(6,7-Dimethoxy-4-quinolyl)oxy]phenyl}-N′-(2,5-dimethylbenzoyl)thiourea]	10	877	–	–	–
COc1cc2nccc(Oc3ccc(NC(=S)NC(=O)c4cccc(C)c4C)cc3)c2cc1OC [Example 1005, N-{4-[(6,7-Dimethoxy-4-quinolyl)oxy]phenyl}-N′-(2,3-dimethylbenzoyl)thiourea]	28	674	–	–	–
COc1cc2nccc(Oc3ccc(NC(=S)NC(=O)c4cc(Cl)cc(Cl)c4)cc3)c2cc1OC [Example 1009, N-(3,5-Dichlorobenzoyl)-N′-{4-[(6,7-dimethoxy-4-quinolyl)oxy]phenyl}thiourea]	21	243	–	–	–
COc1cc2nccc(Oc3ccc(NC(=S)NC(=O)c4cccc(C)c4C)cc3Cl)c2cc1OC [Example 1018, N-{3-Chloro-4-[(6,7-dimethoxy-4-quinolyl)oxy]phenyl}-N′-(2,3-dimethylbenzoyl)thiourea]	10	320	–	–	–
COc1cc2nccc(Oc3ccc(NC(=S)NC(=O)c4cc(C)cc(C)c4)cc3Cl)c2cc1OC [Example 1019, N-{3-Chloro-4-[(6,7-dimethoxy-4-quinolyl)oxy]phenyl}-N′-(3,5-dimethylbenzoyl)thiourea]	22	187	–	–	–
COc1cc2nccc(Oc3ccc(NC(=S)NC(=O)Cc4ccccc4)cc3)c2cc1OC [Example 1022, N-{4-[(6,7-Dimethoxy-4-quinolyl)oxy]phenyl}-N′-(2-phenylacetyl)thiourea]	28	202	–	–	–
COc1cc2nccc(Oc3ccc(NC(=S)NC(=O)CC4CCCCC4)cc3)c2cc1OC [Example 1023, N-(2-Cyclohexylacetyl)-N′-{4-[(6,7-dimethoxy-4-quinolyl)oxy]phenyl}thiourea]	22	116	–	–	–
COc1cc2nccc(Oc3ccc(NC(=S)NC(=O)Cc4ccccc4)c(F)c3)c2cc1OC [Example 1024, N-{4-[(6,7-Dimethoxy-4-quinolyl)oxy]-2-fluorophenyl}-N′-(2-phenylacetyl)thiourea]	11	141	–	–	–
COc1ccccc1CCC(=O)NC(=S)Nc1ccc(Oc2ccnc3cc(OC)c(OC)cc23)cc1 [Example 1025, N-{4-[(6,7-Dimethoxy-4-quinolyl)oxy]phenyl}-N′-[3-(2-methoxyphenyl)propanoyl]thiourea]	15	194	–	–	–
COc1cc2nccc(Oc3ccc(NC(=S)NC(=O)CCc4ccccc4)cc3F)c2cc1OC [Example 1028, N-{4-[(6,7-Dimethoxy-4-quinolyl)oxy]-3-fluorophenyl}-N′-(3-phenylpropanoyl)thiourea]	< 10	545	–	–	–
COc1cc2nccc(Oc3ccc(NC(=S)NC(=O)CCC4CCCC4)cc3F)c2cc1OC [Example 1029, N-(3-Cyclopentylpropanoyl)-N′-{4-[(6,7-dimethoxy-4-quinolyl)oxy]-3-fluorophenyl}thiourea]	5	126	–	–	–
COc1cc2nccc(Oc3ccc(NC(=S)NC(=O)CCC4CCCC4)cc3Cl)c2cc1OC [Example 1030, N-{3-Chloro-4-[(6,7-dimethoxy-4-quinolyl)oxy]phenyl}-N′-(3-cyclopentylpropanoyl)thiourea]	14	337	–	–	–
COc1cc2nccc(Oc3ccc(NC(=S)NC(=O)COCc4ccccc4)c(F)c3)c2cc1OC [Example 1031, N-[2-(Benzyloxy)acetyl]-N′-{4-[(6,7-dimethoxy-4-quinolyl)oxy]-2-fluorophenyl}thiourea]	10	254	–	–	–
COc1cc2nccc(Oc3ccc(NC(=S)NC(=O)N(CCCl)CCCl)cc3)c2cc1OC [Example 1042, N-{4-[(6,7-Dimethoxy-4-quinolyl)oxy]phenyl}-[{[di(2-chloroethyl)amino]carbonyl}amino]methanethioamide]	39	–	–	–	107

The next lines start with results.

IC50 (PDGF-Ra) [nM]	IC50 (c-kit; [1]) [nM]	inhibition at 1 µM (c-kit) [%]	inhibition at 0.1 µM (PDGF-Ra; G292, figure in parentheses in >100( ), at 100 nM, read-out: PDGF (E) inhibition (%) at 100 nM) [%]	SMILES	IC50 (c-kit; c-kit IC50, MO7e cells) [nM]
< 10	321	–	–	COc1cc2nccc(Oc3ccc(NC(=S)NC(=O)COCc4ccccc4)cc3F)c2cc1OC [Example 1032, N-[2-(Benzyloxy)acetyl]-N′-{4-[(6,7-dimethoxy-4-quinolyl)oxy]-3-fluorophenyl}thiourea]	–
< 10	414	–	–	COc1cc2nccc(Oc3ccc(NC(=S)NC(=O)c4ccc(C)s4)cc3F)c2cc1OC [Example 1040, N-{4-[(6,7-Dimethoxy-4-quinolyl)oxy]-3-fluorophenyl}-N′-[(5-methyl-2-thienyl)carbonyl]thiourea]	–
12	98	–	–	CCN(CC)C(=O)NC(=S)Nc1ccc(Oc2ccnc3cc(OC)c(OC)cc23)cc1 [Example 1041, N-{4-[(6,7-Dimethoxy-4-quinolyl)oxy]phenyl}-{[(diethylamino)carbonyl]amino}methanethioamide]	–
27	449	–	–	COc1cc2nccc(Oc3ccc(NC(=S)NC(=O)N(C(C)C)C(C)C)cc3)c2cc1OC [Example 1043, N-{4-[(6,7-Dimethoxy-4-quinolyl)oxy]phenyl}-{[(diisopropylamino)carbonyl]amino}methanethioamide]	–
< 10	136	–	–	COc1cc2nccc(Oc3ccc(NC(=S)NC(=O)N4CCCC4)cc3)c2cc1OC [Example 1044, N-{4-[(6,7-Dimethoxy-4-quinolyl)oxy]phenyl}-N′-tetrahydro-1H-1-pyrrolylcarbonylthiourea]	–
17	193	–	–	COc1cc2nccc(Oc3ccc(NC(=S)NC(=O)N4CCOCC4)cc3)c2cc1OC [Example 1045, N-{4-[(6,7-Dimethoxy-4-quinolyl)oxy]phenyl}-N′-morpholinocarbonylthiourea]	–
38	202	–	–	COc1cc2nccc(Oc3ccc(NC(=S)NC(=O)N(C)c4ccccc4)cc3)c2cc1OC [Example 1046, N-{4-[(6,7-Dimethoxy-4-quinolyl)oxy]phenyl}-{[(methylanilino)carbonyl]amino}methanethioamide]	–
< 10	250	–	–	CCN(CC)C(=O)NC(=S)Nc1ccc(Oc2ccnc3cc(OC)c(OC)cc23)c(Cl)c1 [Example 1048, N-{3-Chloro-4-[(6,7-dimethoxy-4-quinolyl)oxy]phenyl}-{[(diethylamino)carbonyl]amino}methanethioamide]	–
23	579	–	–	COc1cc2nccc(Oc3ccc(NC(=S)NC(=O)N(C(C)C)C(C)C)cc3Cl)c2cc1OC [Example 1050, N-{3-Chloro-4-[(6,7-dimethoxy-4-quinolyl)oxy]phenyl}-{[(diisopropylamino)carbonyl]amino}methanethioamide]	–
14	418	–	–	COc1cc2nccc(Oc3ccc(NC(=S)NC(=O)N4CCCC4)cc3Cl)c2cc1OC [Example 1051, N-{3-Chloro-4-[(6,7-dimethoxy-4-quinolyl)oxy]phenyl}-N′-tetrahydro-1H-1-pyrrolylcarbonylthiourea]	–
21	408	–	–	COc1cc2nccc(Oc3ccc(NC(=S)NC(=O)N4CCOCC4)cc3Cl)c2cc1OC [Example 1052, N-{3-Chloro-4-[(6,7-dimethoxy-4-quinolyl)oxy]phenyl}-N′-morpholinocarbonylthiourea]	–
27	–	19	–	COc1cc2nccc(Oc3ccc(NC(=S)NC(=O)N4c5ccccc5CCc5ccccc54)cc3Cl)c2cc1OC [Example 1054, N-{3-Chloro-4-[(6,7-dimethoxy-4-quinolyl)oxy]phenyl}-N′-[10,11-dihydro-5H-dibenzo(b,f)azepin-5-ylcarbonyl]thiourea]	–
16	312	–	–	COc1cc2nccc(Oc3ccc(NC(=S)NC(=O)C4CC4c4ccccc4)cc3)c2cc1OC (centres unmarked) [Example 1055, N-{4-[(6,7-Dimethoxy-4-quinolyl)oxy]phenyl}-N′-[(2-phenylcyclopropyl)carbonyl]thiourea]	–
8	–	21	–	COc1cc2nccc(Oc3ccc(NC(=S)NC(=O)C4CC4)cc3Cl)c2cc1OC [Example 1058, N-{3-Chloro-4-[(6,7-dimethoxy-4-quinolyl)oxy]phenyl}-N′-cyclopropylcarbonylthiourea]	–
39	–	30	–	COc1cc2ncnc(Oc3ccc(NC(=S)NC(=O)C4CC4c4ccccc4)cc3)c2cc1OC (centres unmarked) [Example 1060, N-{4-[(6,7-Dimethoxy-4-quinazolinyl)oxy]phenyl}-N′-[(2-phenylcyclopropyl)carbonyl]thiourea]	–
19	566	–	–	CCOCCC(=O)NC(=S)Nc1ccc(Oc2ccnc3cc(OC)c(OC)cc23)cc1 [Example 1065, N-{4-[(6,7-Dimethoxy-4-quinolyl)oxy]phenyl}-N′-(3-ethoxypropanoyl)thiourea]	–
> 100	–	0	17	CCOCCC(=O)NC(=S)Nc1ccc(Oc2ccnc3cc(OC)c(OC)cc23)c(Cl)c1 [Example 1071, N-{3-Chloro-4-[(6,7-dimethoxy-4-quinolyl)oxy]phenyl}-N′-(3-ethoxypropanoyl)thiourea]	–
< 10	289	–	–	CCCCC(C)C(=O)NC(=S)Nc1ccc(Oc2ccnc3cc(OC)c(OC)cc23)cc1 (centres unmarked) [Example 1074, N-{4-[(6,7-Dimethoxy-4-quinolyl)oxy]phenyl}-N′-(2-methylhexanoyl)thiourea]	–
